Where two headings read alike, the source gives them in different places.
How the values were obtained:
[1] = test system: P. falciparum 3D7 (chloroquine-sensitive) strain; test: In vitro antiplasmodial activity assay (SYBR-Safe; malstat for 15); assay type: cell-based, Plasmodium falciparum; details: for IC50: Plasmodium falciparum; for Effect of changing folic acid concentration on parasite sensitivity: […] versus 220 μM folic acid in medium
porcine PDHc E1 [2] = target: T1, porcine PDHc E1 (Sus scrofa, UniProt F1SGH5+P29804); test: Porcine PDHc-E1 inhibition, DCPIP reduction assay; assay type: biochemical; details: for inhibition at 50 µM: read-out: Inhibition (%) of PDH E1; for inhibition at 100 µM: read-out: Inhibition (%) of PDH E1 at [TPP] = 100 μM
T1 sequence (P29804 31-390): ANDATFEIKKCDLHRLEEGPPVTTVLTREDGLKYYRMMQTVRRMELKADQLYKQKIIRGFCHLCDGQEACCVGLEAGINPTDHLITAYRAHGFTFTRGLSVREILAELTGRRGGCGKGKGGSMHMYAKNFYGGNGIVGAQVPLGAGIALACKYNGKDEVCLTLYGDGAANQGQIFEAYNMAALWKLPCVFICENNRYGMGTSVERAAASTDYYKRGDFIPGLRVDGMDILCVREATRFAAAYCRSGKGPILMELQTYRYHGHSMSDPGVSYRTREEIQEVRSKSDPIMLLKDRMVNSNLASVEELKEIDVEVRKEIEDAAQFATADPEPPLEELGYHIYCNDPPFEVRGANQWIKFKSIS
T1 sequence (F1SGH5 32-360): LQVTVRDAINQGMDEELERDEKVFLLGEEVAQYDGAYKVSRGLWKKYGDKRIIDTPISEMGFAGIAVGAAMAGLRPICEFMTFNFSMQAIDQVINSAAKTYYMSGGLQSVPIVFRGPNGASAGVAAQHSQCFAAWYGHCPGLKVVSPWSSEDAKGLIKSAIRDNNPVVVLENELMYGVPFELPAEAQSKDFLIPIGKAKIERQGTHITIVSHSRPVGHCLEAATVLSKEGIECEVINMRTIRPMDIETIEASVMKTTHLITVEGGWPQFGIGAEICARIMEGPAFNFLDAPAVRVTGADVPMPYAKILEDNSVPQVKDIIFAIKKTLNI

[3] = test system: Zymomonas mobilis pyruvate decarboxylase (zmPDC); set-up: method as in PMID 19082157; details: cited from earlier work
porcine PDHc E1 [4] = target: T1, porcine PDHc E1; test: Porcine PDHc-E1 inhibition, DCPIP reduction assay; assay type: biochemical; details: for IC50: [TPP] = 10 μM, mean ± SEM, read-out: IC50 PDH E1; for Ki: read-out: Ki PDH E1
[5] = test system: P. falciparum 3D7 parasites expressing PfTPK-GFP; test: Antiplasmodial activity against parasites overexpressing PfTPK-GFP; assay type: cell-based, Plasmodium falciparum; details: versus mock and wild-type parasites; presence or absence of thiamine (2.97 μM)
[6] = test system: human foreskin fibroblast (HFF) cells; assay type: cell-based; details: for Selectivity index: HFF cytotoxicity versus antiplasmodial IC50; for Cytotoxicity: human, 96 h
Protocol: Cytotoxicity evaluation of selected compounds
Cytotoxicity testing of selected compounds was conducted using HFF cells (human foreskin fibroblasts) as described by Howieson et al. with some modifications.10 Briefly, the HFF cells were seeded in 96- […]
Cycloheximide (10 µM; a protein synthesis inhibitor) was used as a control to indicate complete inhibition of HFF cell proliferation. Plates were […]
A sample of the supernatant
(150 µL) was then carefully aspirated from each well and discarded. The plates were then stored at - 80 °C. SYBR-Safe assay was used to measure cell proliferation. Briefly, the plates were thawed, SYBR-Safe lysis solution (150 µL) was added to each well and mixed via pipetting to ensure the HFF cells were detached from the plate and lysed. The plates were then processed as described for the […]
Fig. S7. […] Data are averaged […]
from three independent experiments, each carried out in triplicate. Error bars represent SEM and, where not visible, are smaller than the symbols. […]
10Howieson, V.M.; Tran, E.; Hoegl, A.; Fam, H.L.; Fu, J.; Sivonen, K.; Li, X.X.; Auclair, K.; Saliba, K.J. Triazole substitution of a labile amide bond […]

P. falciparum = test system: P. falciparum; set-up: method as in earlier work; details: ChEMBL; read-out: IC50 against P. falciparum; cited from earlier work
[7] = target: pig heart pyruvate dehydrogenase; set-up: method as in PMID 183746; details: read-out: KD for TPP in pig heart pyruvate dehydrogenase; cited from earlier work
[8] = 3D7, medium with 2.97 μM thiamine, ± SEM, read-out: Antiplasmodial IC50, 2.97 μM thiamine
[9] = 3D7, medium with 297 μM thiamine, ± SEM, read-out: Antiplasmodial IC50, 297 μM thiamine
[10] = 3D7, thiamine-free medium, ± SEM, three independent experiments, read-out: Antiplasmodial IC50, thiamine free
[11] = 3D7, read-out: Antiplasmodial IC50, 2.97 μM thiamine
[12] = 3D7, read-out: Antiplasmodial IC50, 297 μM thiamine
[13] = 3D7, read-out: Antiplasmodial IC50, thiamine free

In the case of `Cc1ncc(Cn2cc(CCOC(=O)c3ccc([N+](=O)[O-])cc3)nn2)c(N)n1` [Compound 12f], the IC50 [1, 8] is reported as > 25 µM, the IC50 [1, 9] is reported as > 25 µM and the IC50 [1, 10] is reported as > 25 µM. The inhibition at 50 µM (porcine PDHc E1 [2]) was 55 ± 5% and the inhibition at 100 µM (porcine PDHc E1 [2]) was 40 ± 8%.
For `Cc1ncc(Cn2cc(CCO)nn2)c(N)n1` [Compound 6, reference compound], the “Binding to zmPDC, times weaker than TPP” value [3] is given as “about 1000 times”, the inhibition at 50 µM (porcine PDHc E1 [2]) is given as 60 ± 7% and the inhibition at 100 µM (porcine PDHc E1 [2]) is given as 35 ± 6%.
Work on `Cc1ncc(Cn2cc(CCOC(=O)c3cccc([N+](=O)[O-])c3)nn2)c(N)n1` [Compound 12g] yielded a melting point of 188 to 189 °C, an IC50 [1, 11] of 139 ± 9 µM and an IC50 [1, 12] of 143 ± 10 µM. For the same molecule, the IC50 [1, 13] was 135 ± 15 µM, the IC50 (porcine PDHc E1 [4]) was 36 ± 4 µM and the Ki (porcine PDHc E1 [4]) was 0.182 ± 0.02 µM. For the same molecule, the inhibition at 50 µM (porcine PDHc E1 [2]) was 56 ± 5% and the inhibition at 100 µM (porcine PDHc E1 [2]) was 38 ± 5%.
With `Cc1ncc(Cn2cc(CCOc3ccc([N+](=O)[O-])cc3)nn2)c(N)n1` [Compound 13a] the IC50 [1, 8] was > 200 µM, the IC50 [1, 9] was > 200 µM and the IC50 [1, 10] was 168 ± 26 µM. The inhibition at 50 µM (porcine PDHc E1 [2]) was 75 ± 3% and the inhibition at 100 µM (porcine PDHc E1 [2]) was 53 ± 4%.
For `Cc1ncc(Cn2cc(CCOC(=O)c3cccc(Cl)c3)nn2)c(N)n1` [Compound 12c], the “Effect of PfTPK overexpression on parasite sensitivity” value (“Effect of PfTPK overexpression” below) [5] was “no effect”, the IC50 [1, 8] was 62 ± 17 µM and the IC50 [1, 9] was 79 ± 5 µM. For the same molecule, the IC50 [1, 10] was 63 ± 15 µM, the Selectivity index [6] was >3.2 and the Cytotoxicity [6] was >200 µM. For the same molecule, the inhibition at 50 µM (porcine PDHc E1 [2]) was 72 ± 3% and the inhibition at 100 µM (porcine PDHc E1 [2]) was 48 ± 3%.
Molecule `Cc1ncc(Cn2cc(CCOC(=O)c3ccc(Cl)cc3)nn2)c(N)n1` [Compound 12b] has an IC50 [1, 11] of 125 ± 22 µM, an IC50 [1, 12] of 122 ± 6 µM and an IC50 [1, 13] of 107 ± 16 µM. The inhibition at 50 µM (porcine PDHc E1 [2]) was 81 ± 2% and the inhibition at 100 µM (porcine PDHc E1 [2]) was 56 ± 3%.
With `Cc1ncc(C[n+]2csc(CCO)c2C)c(O)n1` [oxythiamine, reference compound] the “Effect of PfTPK overexpression” value [5] was “increased the sensitivity”.
For `Cc1ncc(Cn2cc(CCOP(=O)(O)OP(=O)(O)O)nn2)c(N)n1` [Compound 7], the “Binding to zmPDC, times tighter than TPP” value [3] is given as “about 10 000 times”.
In the case of `COc1ncnc(NS(=O)(=O)c2ccc(N)cc2)c1OC` [sulfadoxine, reference compound], the “Effect of changing folic acid concentration on parasite sensitivity” value [1] is reported as “diminished”.
`Cc1ncc(Cn2cc(CCOC(=O)c3ccc(Br)cc3)nn2)c(N)n1` [Compound 12e] gave an IC50 [1, 8] of 85 ± 4 µM, an IC50 [1, 9] of 82 ± 8 µM and an IC50 [1, 10] of 75 ± 6 µM. It also gave an inhibition at 50 µM (porcine PDHc E1 [2]) of 73 ± 2% and an inhibition at 100 µM (porcine PDHc E1 [2]) of 46 ± 5%.
In the case of `Cc1ncc(Cn2cc(CCOC(=O)c3ccccc3)nn2)c(N)n1` [Compound 12a], the “Effect of PfTPK overexpression” value [5] is reported as “no effect”, the IC50 [1, 11] is reported as 136 ± 18 µM and the IC50 [1, 12] is reported as > 200 µM. For the same molecule, the IC50 [1, 13] was 128 ± 13 µM, the IC50 (porcine PDHc E1 [4]) was 20 ± 3 µM and the Ki (porcine PDHc E1 [4]) was 0.1 ± 0.015 µM. The Cytotoxicity [6] was >200 µM, the inhibition at 50 µM (porcine PDHc E1 [2]) was 72 ± 3% and the inhibition at 100 µM (porcine PDHc E1 [2]) was 44 ± 4%.
For `C=CCc1cnc(C)nc1NCc1ccccc1` [Compound 16], the IC50 (P. falciparum) is listed as 18.5 µM.
In the case of `Cc1ncc(C[n+]2csc(CCO[P@](=O)(O)OP(=O)(O)O)c2C)c(N)n1` [TPP, thiamine pyrophosphate], the Kd ([3]; read-out: KD of TPP, zmPDC) is listed as ~0.35 µM and the Kd [7] is listed as 0.05 ± 0.01 µM.
With `Cc1ncc(Cn2cc(CCO)nn2)c(NCc2ccc(Br)cc2)n1` [Compound 15] the “Effect of PfTPK overexpression” value [5] was “no effect”, the IC50 ([1]; 3D7, read-out: Antiplasmodial IC50 (text, thiamine concentration not specified)) was ~2 µM and the IC50 [1, 8] was 2.3 ± 0.1 µM. The IC50 [1, 9] was 2.7 ± 0.01 µM, the IC50 [1, 10] was 2.2 ± 0.2 µM and the “Effect of changing folic acid concentration on parasite sensitivity” value [1] was “no difference”. For the same molecule, the “Inhibitory activity against porcine PDHc E1” value (porcine PDHc E1 [4]) was “none”, the Selectivity index [6] was 45 and the Cytotoxicity [6] was 98 ± 7 µM. The inhibition at 50 µM (porcine PDHc E1 [2]) was 0%.
For `Cc1ncc(Cn2cc(CCOC(=O)c3ccccc3Cl)nn2)c(N)n1` [Compound 12d], the melting point was 184 to 185 °C, the IC50 [1, 8] was 347 ± 20 µM and the IC50 [1, 9] was 343 ± 33 µM. It also gave an IC50 [1, 10] of 339 ± 31 µM, an inhibition at 50 µM (porcine PDHc E1 [2]) of 61 ± 3% and an inhibition at 100 µM (porcine PDHc E1 [2]) of 38 ± 3%.

Source: PMC9298186, “Thiamine analogues as inhibitors of pyruvate dehydrogenase and discovery of a thiamine analogue with non-thiamine related antiplasmodial activity” (RSC Medicinal Chemistry, 2022)
